The results in this text go back to patent US5688767A, “Treatment of endotoxin-associated disorders with cationic peptides” (priority 1996, dated 1997).

Values after ≈ are worked out from the molar mass of the structure shown. Values joined by “and” are separate entries in the source; they are usually repeats but may differ in a detail not shown here. Identical values can stand only once.

Assay [1] concerns the target P. aeruginosa H103 LPS. Briefly: Dansyl polymyxin (DPx) displacement from purified LPS. The following applies: 2.5 μM DPx, 3 μg/ml LPS, 5 mM HEPES pH 7.2, average of at least three trials; for IC50: read-out: I50, Value in μM. In kind it is binding, Pseudomonas aeruginosa. The procedure: In this assay, DPx was incubated with LPS to saturate the binding sites and then, while polycationic compounds are titrated into the reaction, displacement of the DPx was monitored by the decrease in fluorescence (FIG. 9). P. aeruginosa LPS was isolated as previously described (Darveau, et al., J of Bacteriology, 155:831, 1983) Dansyl polymyxin was synthesized as described by Schindler, et al., B. Antimicrobial Agents and Chemo, 8:95, 1975.
The method of Moore, et al., (Antimicrobial Agents and Chemo., 29:496, 1987), was used to test how much DPx was needed to saturate the binding sties on LPS. Briefly, 5 μl samples of 100 μM DPx were titrated sequentially into 1 ml of 3 μg/ml of LPS until a maximum fluorescence was reached. The fluorescence was measured in a Perkin-Elmer 650-10S fluorescence spectrophotometer with an excitation wavelength of 340 nm and an emission wavelength of 485 nm using slit widths of 5 nm. […] For the binding inhibition assays (Moore, et al., Antimicrobial Agents and Chemo., 29:496, 1987), 2.5 μM DPx was added to 3 μg/ml of H103 LPS in 5 mM HEPES pH 7.2. The test compounds were added 5 μl at a time and the decrease in fluorescence due to displacement of the DPx from the LPS was recorded.
When the data was plotted as a double reciprocal plot (FIG. 10), the X-intercept provided a value that is equal to -1/I50.

Assay [2] concerns E. cloacae. Briefly: microbe, parasite or virus in culture. In kind it is cell-based, Enterobacter cloacae. The procedure:
(§1) The minimum inhibitory concentrations of (MIC) of CEME, CEMA and melittin were determined for a number of different bacteria (Table 2). Briefly, cells were grown overnight at 37° C. in LB-S (Luria broth without any salt supplement) and diluted one in 10,000 in the same medium to give concentrations of about 10^4 to 10^5 CFU/ml. The broth dilutions were set up in a 96 well microtiter plate by putting 200 μl of LB-S containing the initial concentration of antibiotic or compound in column 1 and 100 μl of the same medium in columns 2-12. The compounds were diluted by taking 100 μl of broth from column 1 and mixing it with column 2, resulting in a one in two dilution. This was continued to column 10. Finally, 10 μl of bacteria were pipetted into columns 1-11, and the plates incubated overnight at 37° C. The next day the plates were scored for growth in the wells, and the MIC determined.
(§2) Bacteria included the Bort strain of E. coli (Bortolussi, et al., Inf. Immun., 25:293, 1979) that was originally derived from a case of neonatal meningitis, and which is therefore considered a relevant pathogenic strain to study, and the 0111:B4 strain of E. coli (kindly provided by Dr. D. Morrison) which is a standard source of endotoxin. (Kelly, et al., Inf. Immun., 59:4491, 1991). In addition, P. aeruginosa PA01 strain H103, P. aeruginosa M2, P. aeruginosa K799, Eschericha coli UB 1005, Enterobacter cloacae 218S, Salmonella typhimurium MS7953s, Klebsiella pneumoniae ATCC 13883, Xanthomonas maltophilia ATCC 13637, and Acinetobacter calcoacetious 8193 were employed. LPS was obtained from E. coli Bort by the technique of Westphal and Jann, (Westphal, et al., Acad. Press, Inc. NY., 5:83) and from P. aeruginosa H103 by the method of Darveau and Hancock, (Darveau, et al., J. Bacteriol, 155:831, […]). E. coli 0111:B4 LPS was purchased from Sigma.

In assay [3] the test system is TNF induced by viable bacteria in RAW 264.7 cells. Briefly: TNF induction in RAW 264.7 cells by intact bacteria / secreted LPS-protein complexes. In kind it is cell-based, murine. The following applies: for Unit of TNF induced / Unit of TNF induced (% of control): 20 μg of peptide. The procedure: After an overnight incubation, the media was aspirated from all the wells. 100 μl of Lipopolysaccharide (LPS) was added at 100 ng/100 μl. CEME or CEMA was added at the desired concentration/100 μl to specified wells. […] The plates were then incubated for six hours at 37° C., 5% CO2. The supernatant was then removed from the wells and stored overnight at 4° C. For those wells in which whole bacteria were added directly to the wells, the supernatant was centrifuged in 0.2 μm filter eppendorf tubes for 5 minutes.
In intact cell induction experiments, 10^6 E. coli Bort cells induced 11,967-14,805 Units of TNF per ml in RAW cells.
To examine effects on whole bacterium induction of TNF, bacteria, grown in Luria broth overnight (approximately 1×10^8 /ml) and diluted to […] organisms per ml, and RAW 264.7 cells were each added to separate compartments of a transwell diffusion chamber, which contained a 0.2 μm membrane filter separating the two compartments. Peptides were added, when appropriate, to the bacterium-containing compartment at a final concentration of 20 μg/ml. TNF levels were measured after 6 hours of incubation at 37° C. in 5% CO2. All assays were performed three times with similar results.
TNF was measured in cell culture supernatants and mouse serum on the basis of cytoxicity for L929 fibroblast cell. […] TNF activity was expressed in units as the reciprocal of the dilution of TNF that caused 50% cytotoxicity of L929 cells, as computed using the ELISA+program (Meddata, Inc., New York, N.Y.). In our hands one unit of TNF corresponded to 62.5 pg/ml of recombinant murine TNF (Genzyme Corp.).
In man and animal infections, LPS is probably not released as a purified molecule, but rather in association with other bacterial cell components. To mimic this situation, a model system was employed in which the LPS-protein complexes that are naturally released from bacteria were used as a stimulus to induce TNF production in RAW 264.7 cells. Viable cells of E. coli Bort and 0111:B4 or P. aeruginosa H103 were incubated in a transwell filter unit in which a 0.2 μm membrane filter separated the intact bacteria from the compartment containing the RAW 264.7 cells. […] Addition of 20 μg/ml of peptide to 10^5, 10^6, and 10^7 viable to E. coli 0111:B4 (Table 11) and Bort cells reduced the TNF levels by 90%-96%.

Assay [4] concerns P. aeruginosa. The experiment in a line: microbe, parasite or virus in culture. In kind it is cell-based, Pseudomonas aeruginosa. The procedure:
as §1, §2

[5] abbreviates: strain 218S, Parent of 218R1 (Table 2).
Setting [6] is: 10^5 viable E. coli 0111:B4 cells.
[7] abbreviates: 10^6 viable E. coli 0111:B4 cells.
[8] abbreviates: 10^7 viable E. coli 0111:B4 cells.
Where [9] appears, read: strain H188, Antibiotic sensitive.

With `CC[C@H](C)[C@H](NC(=O)CNC(=O)[C@@H](NC(=O)[C@H](CCCCN)NC(=O)[C@H](CCCCN)NC(=O)[C@H](Cc1ccccc1)NC(=O)[C@H](CC(C)C)NC(=O)[C@H](CCCCN)NC(=O)[C@H](Cc1c[nH]c2ccccc12)NC(=O)[C@@H](N)CCCCN)[C@@H](C)CC)C(=O)NCC(=O)N[C@@H](C)C(=O)N[C@H](C(=O)N[C@@H](CC(C)C)C(=O)N[C@@H](CCCCN)C(=O)N[C@H](C(=O)N[C@@H](CC(C)C)C(=O)N[C@H](C(=O)N[C@H](C(=O)NCC(=O)N[C@@H](CC(C)C)C(=O)N1CCC[C@H]1C(=O)N[C@@H](C)C(=O)N[C@@H](CC(C)C)C(=O)N[C@@H](CCCCN)C(=O)N[C@@H](CC(C)C)C(=O)N[C@H](C(=O)N[C@@H](CCCCN)C(=O)O)[C@@H](C)O)[C@@H](C)O)[C@@H](C)O)C(C)C)C(C)C` [CEMA], in assay [1], the “I50, Value in μg/ml” value amounted to 4.12 ± 0.36 µg/mL. Moreover, the IC50 in assay [1] is 1.32 ± 0.117 µM. In addition, the MIC was 4 µg/mL (≈ 1.3 µM) in assay [2] (Enterobacter cloacae 218S (Table 9)); 1.4 µg/mL (≈ 0.457 µM) in assay [2] (strain 218R1, β-lactam resistant); 2.8 µg/mL (≈ 0.913 µM) in assay [2] (setting [5]); 8 µg/mL (≈ 2.61 µM) in assay [4] (Pseudomonas aeruginosa H103); 2.8 µg/mL (≈ 0.913 µM) in assay [4] (Pseudomonas aeruginosa K799); 2.8 µg/mL (≈ 0.913 µM) in assay [4] (strain H187, Parent of H188). Further, the MIC in assay [4] (setting [9]) was 1.4 µg/mL (≈ 0.457 µM); in assay [4] (strain H309, Wildtype), 2.8 µg/mL (≈ 0.913 µM). The “reduction in TNF levels” value in assay [3] (20 μg of CEMA, 10^6 E. coli Bort cells, two independent experiments) is 96% and 97%. Further, the “reduction of TNF induction” value in assay [3] (20 μg/ml CEMA, 10^6 viable P. aeruginosa) was 96%. For the same compound, the results for the “Unit of TNF induced” value in assay [3] (setting [6]), in assay [3] (setting [7]) and in assay [3] (setting [8]) were 552 ± 61 units/ml, 1892 ± 1370 units/ml and 4126 ± 3890 units/ml, respectively. Further, the results for the “Unit of TNF induced (% of control)” value in assay [3] (setting [6]), in assay [3] (setting [7]) and in assay [3] (setting [8]) were 4.5%, 6.0% and 8.5%, respectively.

For the compound polymyxin B, in assay [1], the “I50, Value in μg/ml” value stood at 2.97 ± 0.07 µg/mL. Also, the IC50 in assay [1] turned out to be 1.51 ± 0.04 µM. In addition, the MIC came out at 0.5 µg/mL in assay [2] (setting [5]); 0.5 µg/mL in assay [4] (strain H187, Parent of H188); 0.06 µg/mL in assay [4] (setting [9]); 0.5 µg/mL in assay [4] (strain H309, Wildtype).
